Entries after “also recorded” stand apart in the source; their conditions may differ.
How the values were obtained:
Type in all cases: in vivo
[1] = system: Zucker fa/fa rat; experiment: 28-day feeding study: dietary intake, body weight gain, organ weights; settings: compared to V group; for suppression of body weight gain: feeding period of 28 days
Experimental: (§1) The Zucker fa/fa rat is polyphagous and used as an obesity model and also as a hyperinsulinemia or insulin resistance model.
Eight-week old Zucker fa/fa (Obesity model)
Vehicle (V) fa/fa Basic diet
Onion (O) fa/fa Basic diet+5% Onion
(§2) Dietary intake, body weight gain, liver weight, kidney weight, peritesticular fat weight, glucose tolerance test, blood glucose level, serum insulin, total serum cholesterol, serum triglyceride, serum free fatty acid, and serum leptin.
(§3) Significant tests were carried out using the t test. Two-tailed tests were used for the V group, with significance expressed at p<0.05 (*) and p<0.01 (**).

[2] = system: Zucker fa/fa rat; experiment: Glucose tolerance test
Experimental: as §1, §3
Glucose tolerance tests were carried out in each group of rats at the 2nd week (9-week old) and 4th (11-week old) week after the start of experiment. After 16 hours of fasting, each group of rats was forcedly allowed to ingest 2 g/kg body weight of D-glucose, followed by measuring blood glucose level with time.

[3] = system: Zucker fa/fa rat; experiment: Serum parameters and blood glucose level at autopsy; settings: compared to V group
Experimental: as §1, §2, §3
At autopsy, serum insulin and blood glucose level were measured.

trivalent chromium-nicotinic acid complex [Cr]
weight of kidney ([1]; 28 days feeding): no significant difference | weight of peritesticular fat ([1]; 28 days feeding): no significant difference | suppression of body weight gain [1]: no significant difference | suppression of body weight gain ([1]; listed as trivalent chromium-nicotinic acid complex): neither the trivalent chromium-nicotinic acid complex alone nor the onion extract alone had the effect | blood glucose level in glucose tolerance test ([2]; 2nd and 4th week, after 2 g/kg D-glucose, no time point stated, compared to V group): no significant difference | effect of improving insulin resistance ([2]; conclusion from glucose tolerance test and serum insulin, 2 to 4 weeks): neither the trivalent chromium-nicotinic acid complex alone nor the onion extract alone had the effect | blood glucose level ([3]; at autopsy): no significant difference | serum insulin content ([3]; at autopsy): no significant difference | serum free fatty acid (FFA) [3]: No significant difference | serum leptin [3]: No significant difference | serum triglyceride (TG) [3]: no significant difference; also recorded: tendency of reduction | total serum cholesterol (TC) [3]: No significant difference

From patent publication US20080268069A1, “Mixture having effect of improving insulin resistance, effect of suppressing body weight gain, and effect of preventing and improving fatty liver” (Ryusendo Co., Ltd., priority 2007, published 2008)
